The molecules below were run against T1, human motilin receptor (GPR38) (Homo sapiens, UniProt O43193) (assay: GPR38 (Motilin Receptor) Functional Assay, NFAT-beta-lactamase reporter in CHO-K1 cells). Conditions: not given.
T1 construct: expressed in transfected cells; host or cells: CHO-K1
T1 sequence (O43193 whole entry): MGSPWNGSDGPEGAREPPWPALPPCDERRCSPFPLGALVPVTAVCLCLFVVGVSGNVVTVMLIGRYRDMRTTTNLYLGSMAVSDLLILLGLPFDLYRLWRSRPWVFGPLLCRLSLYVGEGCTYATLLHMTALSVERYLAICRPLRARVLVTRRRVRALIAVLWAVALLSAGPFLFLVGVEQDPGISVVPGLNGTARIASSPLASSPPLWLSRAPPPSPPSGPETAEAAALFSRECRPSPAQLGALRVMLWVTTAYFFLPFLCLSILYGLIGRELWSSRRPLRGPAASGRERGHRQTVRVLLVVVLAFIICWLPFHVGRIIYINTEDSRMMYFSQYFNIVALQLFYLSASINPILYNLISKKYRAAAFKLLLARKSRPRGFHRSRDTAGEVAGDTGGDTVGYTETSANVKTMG
Assay type: cell-based
Experimental: The potencies and efficacies of the compounds of this invention for GPR38 can be determined by reporter assay performed on the human cloned receptor as described herein.
GPR38 (Motilin Receptor) Functional Assay
A CHO-K1 cell line stably transfected NFAT-beta-lactamase reporter and human motilin receptor gene was used. The cells were cultured in culture medium (Dulbecco's modified eagle medium containing 10% fetal bovine serum, 1 mM sodium pyruvate, 0.1 mM MEM nonessential amino acids, 25 mM HEPES buffer, 50 units/mL penicillin, 50 microg/mL streptomycin, 100 microg/mL zeocin, and 500 microg/mL G418). The cells were harvested with 0.05% trypsin EDTA and centrifuged. The cell pellets were resuspended in the culture medium and plated into a black/clear bottom 384-well plate at a density of 8000 cells per well, then incubated at 37° C. with 5% CO2 for over night (about 20 hours). On the day of assay, the culture medium was aspirated and 20 microL of assay medium (Dulbecco's modified eagle medium containing 100 units/mL penicillin and 100 microg/mL streptomycin) was added to each well, then the cell plates were placed in incubator at 37° C. with 5% CO2 for 1.5 hours. Compounds were prepared in 100% DMSO and these were diluted to 5× of final concentration with assay buffer (Hanks balanced salt solution, 20 mM HEPES, and 0.1% BSA), then dispensed into 384-well plate (5 microL/well). After incubation at 37° C. with 5% CO2 for 4.5 hours, CCF4-AM loading solution (Invitrogen Corp.) was added to each well. After incubation for 2 hours at room temperature, fluorescence intensities were measured by using plate reader FDSS (Hamamatsu Photonics K. K.) with excitation 400 nm, emission 465 nm/540 nm. Agonistic activity (EC50) was calculated from the sigmoidal dose-response curve using GraphPad Prism software (GraphPad Software, Inc.).
`CC1(C)C(=O)N(C2CCN(C(=O)[C@H](CCc3ccccc3)NC(=O)[C@@H]3CCCNC3)CC2)c2ccccc21` [Example 1, (R)—N—((S)-1-(4-(3,3-dimethyl-2-oxoindolin-1-yl)piperidin-1-yl)-1-oxo-4-phenylbutan-2-yl)piperidine-3-carboxamide] was tested, and the EC50 was ≤ 10 nM.
`CC1(C)C(=O)N(C2CCN(C(=O)[C@H](CCc3ccccc3)NC(=O)[C@@H]3CCCCN3)CC2)c2ccccc21` [Example 2, (S)-N-((S)-1-(4-(3,3-dimethyl-2-oxoindolin-1-yl)piperidin-1-yl)-1-oxo-4-phenylbutan-2-yl)piperidine-2-carboxamide] was tested, and the EC50 was ≤ 10 nM.
For `CC1(C)C(=O)N(C2CCN(C(=O)[C@H](CCc3ccccc3)NC(=O)[C@@H](N)C(C)(C)C)CC2)c2ccccc21` [Example 3, (S)-2-amino-N-((S)-1-(4-(3,3-dimethyl-2-oxoindolin-1-yl)piperidin-1-yl)-1-oxo-4-phenylbutan-2-yl)-3,3-dimethylbutanamide], the EC50 was ≤ 10 nM.
In the case of `CC1(C)C(=O)N(C2CCN(C(=O)[C@H](CCc3ccccc3)NC(=O)CC3(N)CCC3)CC2)c2ccccc21` [Example 6, (S)-2-(1-aminocyclobutyl)-N-(1-(4-(3,3-dimethyl-2-oxoindolin-1-yl)piperidin-1-yl)-1-oxo-4-phenylbutan-2-yl)acetamide], the EC50 is reported as ≤ 10 nM.
For `CC1(C)C(=O)N(C2CCN(C(=O)[C@H](CCc3ccccc3)NC(=O)C3(CN)CC3)CC2)c2ccccc21` [Example 7, (S)-1-(aminomethyl)-N-(1-(4-(3,3-dimethyl-2-oxoindolin-1-yl)piperidin-1-yl)-1-oxo-4-phenylbutan-2-yl)cyclopropanecarboxamide], the EC50 was ≤ 10 nM.
In the case of `CC1(C)C(=O)N(C2CCN(C(=O)[C@H](CCc3ccccc3)NC(=O)C3CNC3)CC2)c2ccccc21` [Example 9, (S)-N-(1-(4-(3,3-dimethyl-2-oxoindolin-1-yl)piperidin-1-yl)-1-oxo-4-phenylbutan-2-yl)azetidine-3-carboxamide], the EC50 is reported as ≤ 10 nM.
`CC1(C)C(=O)N(C2CCN(C(=O)[C@H](CCc3ccccc3)NC(=O)C3CCNCC3)CC2)c2ccccc21` [Example 10, (S)-N-(1-(4-(3,3-dimethyl-2-oxoindolin-1-yl)piperidin-1-yl)-1-oxo-4-phenylbutan-2-yl)piperidine-4-carboxamide] was tested, and the EC50 was ≤ 10 nM.
With `CC1(C)C(=O)N(C2CCN(C(=O)[C@H](CCc3ccccc3)NC(=O)CC3(N)CCCC3)CC2)c2ccccc21` [Example 12, (S)-2-(1-aminocyclopentyl)-N-(1-(4-(3,3-dimethyl-2-oxoindolin-1-yl)piperidin-1-yl)-1-oxo-4-phenylbutan-2-yl)acetamide] the EC50 was ≤ 10 nM.
For `CNC(C)(C)CC(=O)N[C@@H](CCc1ccccc1)C(=O)N1CCC(N2C(=O)C(C)(C)c3ccccc32)CC1` [Example 13, (S)-N-(1-(4-(3,3-dimethyl-2-oxoindolin-1-yl)piperidln-1-yl)-1-oxo-4-phenylbutan-2-yl)-3-methyl-3-(methylamino) butanamide], the EC50 was ≤ 10 nM.
For `CC1(C)C(=O)N(C2CCN(C(=O)[C@H](CCc3ccccc3)NC(=O)CCNC3CCCC3)CC2)c2ccccc21` [Example 14, (S)-3-(cyclopentylamino)-N-(1-(4-(3,3-dimethyl-2-oxoindolin-1-yl)piperidin-1-yl)-1-oxo-4-phenylbutan-2-yl)propanamide], the EC50 was ≤ 10 nM.
With `COCCN(C)CCC(=O)N[C@@H](CCc1ccccc1)C(=O)N1CCC(N2C(=O)C(C)(C)c3ccccc32)CC1` [Example 15, (S)-N-(1-(4-(3,3-dimethyl-2-oxoindolin-1-yl)piperidin-1-yl)-1-oxo-4-phenylbutan-2-yl)-3-((2-methoxyethyl)(methyl)amino) propanamide] the EC50 was ≤ 10 nM.
For `CC1(C)C(=O)N(C2CCN(C(=O)[C@H](CCc3ccccc3)NC(=O)CN3CCCC3)CC2)c2ccccc21` [Example 17, (S)—N-(1-(4-(3,3-dimethyl-2-oxoindolin-1-yl)piperidin-1-yl)-1-oxo-4-phenylbutan-2-yl)-2-(pyrrolidin-1-yl)acetamide], the EC50 was ≤ 10 nM.
For `CN1CCC[C@@H](C(=O)N[C@@H](CCc2ccccc2)C(=O)N2CCC(N3C(=O)C(C)(C)c4ccccc43)CC2)C1` [Example 20, (R)—N—((S)-1-(4-(3,3-dimethyl-2-oxoindolin-1-yl)piperidin-1-yl)-1-oxo-4-phenylbutan-2-yl)-1-methylpiperidine-3-carboxamide], the EC50 was ≤ 10 nM.
For `CN[C@@H]1CC[C@H](C(=O)N[C@@H](Cc2ccc(Cl)cc2)C(=O)N2CCC(N3C(=O)C(C)(C)c4ccccc43)CC2)C1` [Example 21, (1S,3R)—N—((S)-3-(4-chlorophenyl)-1-(4-(3,3-dimethyl-2-oxoindolin-1-yl)piperidin-1-yl)-1-oxopropan-2-yl)-3-(methylamino)cyclopentanecarboxamide], the EC50 was ≤ 10 nM.
With `CN[C@@H]1CC[C@H](C(=O)N[C@@H](Cc2ccccc2C(F)(F)F)C(=O)N2CCC(N3C(=O)C(C)(C)c4ccccc43)CC2)C1` [Example 22, (1S,3R)-N-((S)-1-(4-(3,3-dimethyl-2-oxoindolin-1-yl)piperidin-1-yl)-1-oxo-3-(2-(trifluoromethyl)phenyl)propan-2-yl)-3-(methylamino)cyclopentane-carboxamide] the EC50 was ≤ 10 nM.
In the case of `CN[C@@H]1CC[C@H](C(=O)N[C@@H](CC2CCCCC2)C(=O)N2CCC(N3C(=O)C(C)(C)c4ccccc43)CC2)C1` [Example 23, (1S,3R)-N-((S)-3-cyclohexyl-1-(4-(3,3-dimethyl-2-oxoindolin-1-yl)piperidin-1-yl)-1-oxopropan-2-yl)-3-(methyl-amino)cyclopentanecarboxamide], the EC50 is reported as ≤ 10 nM.
`CN[C@@H]1CC[C@H](C(=O)N[C@@H](Cc2cccc3ccccc23)C(=O)N2CCC(N3C(=O)C(C)(C)c4ccccc43)CC2)C1` [Example 24, (1S,3R)-N-((S)-1-(4-(3,3-dimethyl-2-oxoindolin-1-yl)piperidin-1-yl)-3-(naphthalen-1-yl)-1-oxopropan-2-yl)-3-(methylamino)cyclopentane-carboxamide] was tested, and the EC50 was ≤ 10 nM.
For `CN[C@@H]1CC[C@H](C(=O)N[C@@H](Cc2ccccc2Cl)C(=O)N2CCC(N3C(=O)C(C)(C)c4ccccc43)CC2)C1` [Example 25, (1S,3R)-N-((S)-3-(2-chlorophenyl)-1-(4-(3,3-dimethyl-2-oxoindolin-1-yl)piperidin-1-yl)-1-oxopropan-2-yl)-3-(methylamino)cyclopentane-carboxamide], the EC50 was ≤ 10 nM.
In the case of `CN[C@@H]1CC[C@H](C(=O)N[C@@H](Cc2ccccc2C)C(=O)N2CCC(N3C(=O)C(C)(C)c4ccccc43)CC2)C1` [Example 26, (1S,3R)-N-((S)-1-(4-(3,3-dimethyl-2-oxoindolin-1-yl)piperidin-1-yl)-1-oxo-3-o-tolylpropan-2-yl)-3-(methyl-amino)cyclopentanecarboxamide], the EC50 is reported as ≤ 10 nM.
With `CN[C@@H]1CC[C@H](C(=O)N[C@@H](Cc2ccc(F)cc2)C(=O)N2CCC(N3C(=O)C(C)(C)c4ccccc43)CC2)C1` [Example 27, (1S,3R)-N-((S)-1-(4-(3,3-dimethyl-2-oxoindolin-1-yl)piperidin-1-yl)-3-(4-fluorophenyl)-1-oxopropan-2-yl)-3-(methylamino)cyclopentane-carboxamide] the EC50 was ≤ 10 nM.

Same assay, conditions: ED50 (nM), Table 15; functional activity toward GPR38 (motilin receptor), (S) versus (R) amino acid linker
`CC1(C)C(=O)N(C2CCN(C(=O)[C@H](CCc3ccccc3)NC(=O)[C@@H]3CCCNC3)CC2)c2ccccc21` [Example 1, (R)—N—((S)-1-(4-(3,3-dimethyl-2-oxoindolin-1-yl)piperidin-1-yl)-1-oxo-4-phenylbutan-2-yl)piperidine-3-carboxamide] showed an EC50 of 0.24 nM.

From patent US8697877B2, “Oxyindole derivatives with motilin receptor agonistic activity” (RaQualia Pharma Inc., priority 2009, dated 2014)
